Laboratory results: publication PMC8376128 (CPT: Pharmacometrics & Systems Pharmacology, 2021)
Like-named read-outs stand apart in the source and are kept apart here.

What was measured:
[1] = system: NSCLC tumors; conditions: cited from earlier work
[2] = system: NSCLC tumors; conditions: cited from earlier work; remark: listed apart in the source
[3] = Human PK model for AMG 510 fitted to digitized published clinical PK data; format: in vivo; conditions: AMG 510 (human)
[4] = patients with NSCLC, single agent

In the case of `C=C(F)C(=O)N1CCN(c2nc(OC[C@@H]3CCCN3C)nc3c2CCN(c2cccc4cccc(Cl)c24)C3)C[C@@H]1CC#N` [MRTX849, Adagrasib], the “overall response rate (ORR)” value [1, 4] is listed as ~ 50% and the dose-limiting toxicities ([1]; patients, phase I) is listed as “no dose‐limiting toxicities”.
In the case of `C=CC(=O)N1CCN(c2nc(=O)n(-c3c(C)ccnc3C(C)C)c3nc(-c4c(O)cccc4F)c(F)cc23)[C@@H](C)C1` [AMG 510, Sotorasib], the ORR reported ([2]; AMG 510 at 960 mg, patients with NSCLC) is listed as 50%, the “overall response rate (ORR)” value [2, 4] is listed as ~ 50% and the dose-limiting toxicities ([2]; patients, phase I) is listed as “no dose‐limiting toxicities”. For the same compound, the “Fz (data), frequency in tumor size bin 0–0.3” value ([2]; six weeks AMG 510) was 0.091, the “Fz (data), frequency in tumor size bin 0.3–0.5” value ([2]; six weeks AMG 510) was 0.136 and the “Fz (data), frequency in tumor size bin 0.5–0.7” value ([2]; six weeks AMG 510) was 0.272. The “Fz (data), frequency in tumor size bin 0.7–1” value ([2]; six weeks AMG 510) was 0.272, the “Fz (data), frequency in tumor size bin 1–1.2” value ([2]; six weeks AMG 510) was 0.227 and the “N (data), number of patients in tumor size bin 0–0.3” value ([2]; six weeks AMG 510) was 2. The “N (data), number of patients in tumor size bin 0.3–0.5” value ([2]; six weeks AMG 510) was 3, the “N (data), number of patients in tumor size bin 0.5–0.7” value ([2]; six weeks AMG 510) was 6 and the “N (data), number of patients in tumor size bin 0.7–1” value ([2]; six weeks AMG 510) was 6. The “N (data), number of patients in tumor size bin 1–1.2” value ([2]; six weeks AMG 510) was 5, the ke [3] was 2.98 day⁻¹ and the V1 ([3]; assume 70 kg human) was 110 L. It also gave a Vp ([3]; assume 70 kg human) of 4.40 L and a ka ([3]; single dose 960 mg) of 58.1 day⁻¹.
